Laboratory results reported in ChEMBL document CHEMBL3217671, “l-Penicillamine is a mechanism-based inhibitor of serine palmitoyltransferase by forming a pyridoxal-5-phosphate-thiazolidine adduct” (Medchemcomm, 2012).
Activity calls are given as the source filed them. The calls are words filed in the database; no cut-off is given here.

Columns and labels:
[1] = biological target: T1, Serine palmitoyltransferase (Sphingomonas paucimobilis) (UniProt Q93UV0); assay: Inhibition of Sphingomonas paucimobilis recombinant SPT expressed in Escherichia coli BL21(DE3) assessed as remaining activity at 5 mM after 30 mins by dialysis technique relative to control
T1 sequence (whole entry): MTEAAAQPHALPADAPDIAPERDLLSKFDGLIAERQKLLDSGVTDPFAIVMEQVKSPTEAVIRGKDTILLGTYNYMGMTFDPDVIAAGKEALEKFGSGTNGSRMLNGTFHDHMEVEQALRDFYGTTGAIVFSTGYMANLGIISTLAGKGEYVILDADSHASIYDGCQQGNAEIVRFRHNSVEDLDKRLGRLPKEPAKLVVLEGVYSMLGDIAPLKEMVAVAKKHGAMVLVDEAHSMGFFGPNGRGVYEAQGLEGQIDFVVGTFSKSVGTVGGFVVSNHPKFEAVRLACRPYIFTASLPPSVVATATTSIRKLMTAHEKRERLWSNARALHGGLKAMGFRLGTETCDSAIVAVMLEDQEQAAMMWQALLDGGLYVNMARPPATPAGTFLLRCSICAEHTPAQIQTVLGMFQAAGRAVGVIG

[2] = biological target: T1, Serine palmitoyltransferase (Sphingomonas paucimobilis); assay: Reversible inhibition of Sphingomonas paucimobilis recombinant SPT expressed in Escherichia coli BL21(DE3) assessed as restoration of enzyme activity at 5 mM after 30 mins by dialysis technique in presence of PLP relative to control; parameters: scale not given: the % may be the effect or the level left
[3] = biological target: T1, Serine palmitoyltransferase (Sphingomonas paucimobilis); assay: Binding affinity to Sphingomonas paucimobilis recombinant SPT expressed in Escherichia coli BL21(DE3) at 10 mM after 30 mins by UV-vis spectroscopic analysis
[4] = biological target: T1, Serine palmitoyltransferase (Sphingomonas paucimobilis); assay: Inhibition of Sphingomonas paucimobilis recombinant SPT expressed in Escherichia coli BL21(DE3) by membrane filtration assay
[5] = biological target: T1, Serine palmitoyltransferase (Sphingomonas paucimobilis); assay: Inhibition of Sphingomonas paucimobilis recombinant SPT expressed in Escherichia coli BL21(DE3) by dialysis technique in presence of PLP and potassium phosphate buffer
[6] = biological target: T1, Serine palmitoyltransferase (Sphingomonas paucimobilis); assay: Binding affinity to Sphingomonas paucimobilis recombinant SPT expressed in Escherichia coli BL21(DE3) at 5 mM by ESI-FT-ICR mass spectrometric analysis
[7] = biological target: T1, Serine palmitoyltransferase (Sphingomonas paucimobilis); assay: Binding affinity to Sphingomonas paucimobilis recombinant SPT expressed in Escherichia coli BL21(DE3) at 10 mM by UV-vis spectroscopic analysis; conditions: TDE = time-dependent effect
[8] = biological target: T1, Serine palmitoyltransferase (Sphingomonas paucimobilis); assay: Reversible inhibition of Sphingomonas paucimobilis recombinant SPT expressed in Escherichia coli BL21(DE3) at 1 mM after 1 to 60 mins by UV-vis spectroscopic analysis in presence of Tris-HCl buffer
[9] = biological target: T1, Serine palmitoyltransferase (Sphingomonas paucimobilis); assay: Reversible inhibition of Sphingomonas paucimobilis recombinant SPT expressed in Escherichia coli BL21(DE3) at 1 mM after 1 to 60 mins by UV-vis spectroscopic analysis in presence of potassium phosphate buffer

SMILES: CC(C)(S)[C@@H](N)C(=O)O
- Activity [1]: 34%
- Activity [2]: 57%

SMILES: CC(C)(S)[C@H](N)C(=O)O
- Activity [1]: 3%
- Activity [2]: 80%
- Activity [3]: Active
- inhibition [4]: Active
- inhibition [5]: Active
- Activity [6]: Active

SMILES: N[C@H](CS)C(=O)O
- Activity [1]: 22%
- Activity [2]: 76%

SMILES: N[C@@H](CS)C(=O)O
- Activity [1]: 24%
- Activity [2]: 83%
- Activity [7]: tde
- inhibition [8]: Active
- inhibition [9]: inactive
